In US20230326554A1, “IDENTIFYING TREATMENT RESPONSE SIGNATURES” (Rutgers, The State University of New Jersey, priority 2022, published 2023):

Key:
Format in all cases: cell-based, human
[1] = tested on: C42B-EnzaRes cells; test: Boyden chamber-based in vitro migration assay; details: for cell migration with NME2 knockdown added: C42B-EnzaRes cells with knockdown of NME2
Protocol: (§1) FIGS. 21A-21F show MYC targeting is beneficial for patients in Enzalutamide-resistant conditions. (FIG. 21A) Drug sensitivity curves of Enzalutamide-naïve, or Enzalutamide-resistant (EnzaRes) C42B cells treated with MYCi975. (FIG. 21B) Colony formation assay using Enzalutamide-resistant (EnzaRes) C42B cells in Intact (treated with DMSO), treated with Enzalutamide (10 μM), MYCi975 (2 μM), or a combination of Enzalutamide+MYCi975 (10 μM+2 μM). Cells were grown in the presence of respective drugs. Representative images are shown. P-value was estimated using a one-tailed Welch t-test. (FIG. 21C) Boyden chamber-based in vitro migration assay using Enzalutamide-resistant (EnzaRes) C42B cells in Intact (treated with DMSO), treated with Enzalutamide (10 μM), MYCi975 (2 μM), or a combination of Enzalutamide+MYCi975 (10 μM+2 μM). Bars represent the quantification of Crystal Violet trapped by migrated cells. P-value was estimated using a one-tailed Welch t-test. (FIG. 21D) Expression of NME2 in Intact and Enzalutamide-resistant (EnzaRes) C42B cells, using the qRT-PCR. P-value was estimated using the one-tailed Welch t-test. (FIG. 21E) Two different siRNAs targeting NME2 were used to downregulate NME2 (left panel) and its effect on MYC expression using qRT-PCR is shown (right panel). (FIG. 21F) Boyden chamber-based in vitro migration assay using Enzalutamide-resistance (EnzaRes) C42B cells in Intact (treated with DMSO) or treated with a combination of Enzalutamide+MYCi975 (10 μM+2 μM) with or without knockdown of NME2. Bars represent the quantification of Crystal Violet trapped by migrated cells. * p-value<0.05, ** p-value≤0.01, *** p-value≤0.001

[2] = tested on: LNCaP cells; test: dose-response cell viability assay; details: Enzalutamide-naïve and Enzalutamide-resistant conditions, varying doses, dose-dependent
Protocol: (§2) FIGS. 22A and 22B show MYC inhibition reduces viability and colony formation in Enzalutamide resistant conditions. (FIG. 22A) Drug response curves of Enzalutamide naïve LNCaP or Enzalutamide-resistant LNCaP cells treated with Enzalutamide and/or MYC-i975. (FIG. 22B) Colony formation assay using Enzalutamide-resistant LNCaP cells t(LNCaP-Enza-Res) in intact (treated with DMSO), treated with enzalutamide (10 μM), MYC-i975 (2 μM), or a combination of Enzalutamide+MYC-i975 (10 μM+2 μM). Cells were grown in the presence of respective drugs. Bars represent quantification of Crystal Violet trapped by migrated cells. P-value is estimated utilizing one-tailed Welch t-test. * p<0.05, *** p≤0.001.
(§3) Generation of Enzalutamide-resistant cell lines: LNCaP (clone FDG) and C42B cells were purchased from ATCC and were grown in RPMI1640 media (GIBCO # 11875093) supplemented with 10% Fetal Bovine Serum (FBS, Corning Cat#35-011-CV) and maintained at […] in and 5% CO2. Enzalutamide powder was purchased from Sellekchem (cat #S1250) and re-suspended in DMSO. Cells were plated in 6 well plates and treated either with DMSO, or with Enzalutamide (20 uM), refreshed every 4 days for up to 3 months until the resistance emerged. RNA from cells was extracted on indicated days using the methods described below. […]

[3] = tested on: C42B cells; test: dose-response cell viability assay; details: Enzalutamide-naïve and Enzalutamide-resistant conditions, varying doses, dose-dependent
Protocol: as §1, with “(FIG. 21E) Two different siRNAs targeting NME2 were used to downregulate NME2 (left panel) and its effect on MYC expression using qRT-PCR is shown (right panel). (FIG. 21F) Boyden chamber-based in vitro migration assay using Enzalutamide-resistance (EnzaRes) C42B cells in Intact (treated with DMSO) or treated with a combination of Enzalutamide+MYCi975 (10 μM+2 μM) with or without knockdown of NME2.” left out, “p-value≤0.001 […]” for “p-value≤0.001”

[4] = tested on: LNCaP-EnzaRes cells; test: colony formation assay; details: MYCi975 2 μM, Enzalutamide 10 μM, compared to Intact (DMSO)
Protocol: as §2, §3

[5] = tested on: C42B-EnzaRes cells; test: colony formation assay; details: MYCi975 2 μM, Enzalutamide 10 μM, compared to Intact (DMSO)
Protocol: as §1, with “(FIG. 21E) Two different siRNAs targeting NME2 were used to downregulate NME2 (left panel) and its effect on MYC expression using qRT-PCR is shown (right panel). (FIG. 21F) Boyden chamber-based in vitro migration assay using Enzalutamide-resistance (EnzaRes) C42B cells in Intact (treated with DMSO) or treated with a combination of Enzalutamide+MYCi975 (10 μM+2 μM) with or without knockdown of NME2.” left out, “p-value≤0.001 […]” for “p-value≤0.001”

[6] = tested on: MYC; test: doxycycline-inducible shRNA knockdown of NME2, Western blot; details: C4-2B cells, 0-2000 ng/mL doxycycline for 96 hours
Protocol: Finally, C4-2B cells expressing doxycycline-inducible shRNA targeting NME2 were generated using the targeting sequence […] (SEQ ID NO: 9). Cells were treated with 0-2000 ng/mL doxycycline for 96 hours and NME2 and MYC expression were evaluated by Western blot.

With `CNC(=O)c1ccc(N2C(=S)N(c3ccc(C#N)c(C(F)(F)F)c3)C(=O)C2(C)C)cc1F` [Enzalutamide] the “cell migration with NME2 knockdown added” value [1] was “low metastatic capability”.

For `Cn1nc(C(F)(F)F)cc1-c1ccc(OCc2ccc(Cl)cc2)c(-c2ccc(Cl)c(C(F)(F)F)c2)c1O` [MYCi975], the cell viability [2] was “striking reduction of the cell viability”, the cell viability [3] was “striking reduction of the cell viability” and the colony formation [4] was “reduced the colony formation”. For the same compound, the colony formation [5] was “reduced the colony formation”, the “cell migration with NME2 knockdown added” value [1] was “further reduced” and the cell migration ([1]; C42B-EnzaRes cells, MYCi975 2 μM, Enzalutamide 10 μM, compared to Intact (DMSO)) was “significant reduction in cell migration”.

For “shRNA targeting NME2: doxycycline-inducible shRNA targeting NME2, targeting sequence GAAATCAGCCTATGGTTTAAG (SEQ ID NO: 9)”, the MYC expression [6] was “suppresses MYC expression”.
